According to publication PMC8471306, “Chemical Changes of Hydroperoxy-, Epoxy-, Keto- and Hydroxy-Model Lipids under Simulated Gastric Conditions” (Foods, 2021):
Values joined by “and” are separate entries in the source; they are usually repeats but may differ in a detail not shown here. Equal values may be shown once. “Also recorded” adds a separate entry of the source.

Experiments:
[1] = In vitro simulated gastric digestion of model lipid emulsions in SGF, quantitation by GC-FID; format: in vitro ADME
Description: Emulsions of model lipid compounds were prepared in a simulated gastric fluid (SGF) formulated as described in the United States Pharmacopeia. SGF contained 3.2% w/v pepsin in 0.03 M NaCl and 0.1 M HCl (pH 1.2). Different sample solutions of model lipid compounds in SGF were prepared and methyl C21:0 was added as an internal standard (IS) for quantitative purposes. Homogenization was performed in an Omnimixer (Sorvall, Newton, PA, USA) at 10,000 rpm for 5 min at 1-min intervals, as described elsewhere. […] Samples of 1, 2, 3 and 4 mL (~16 μmol mL^−1 of each compound) were used. • - Two methyl 9,10-epoxysteatate emulsions, i.e., 5 and 15 mg mL^−1, both with 10 mg mL^−1 of the IS, in SGF. Samples of 1, 2, 3 and 4 mL (16 and 46 μmol mL^−1) were used. • - Three methyl linoleate hydroperoxides emulsions, i.e., 5, 7.5 and 10 mg mL^−1, with 1, 1.5 and 2 mg mL^−1 of the IS, respectively. Additional methyl hydroperoxides emulsions at the same concentrations were prepared adjusting the pH to 3.0 and 6.6 with 1 M NaHCO3. Samples of 4 mL (15.3, 23.0 and 30.6 μmol mL^−1) were used.
Gastric digestion was simulated using a classical in vitro model. Emulsions of lipid model compounds prepared as described in Section 2.3. were used for digestion assays immediately after preparation. Triplicate emulsions were incubated in a shaking water bath for 3 h at 37 °C/100 rpm.
Lipids were thoroughly extracted with 1:1 hexane:diethyl ether after vigorous shaking in a vortex and centrifugation at 2000 rpm. Hexane and diethyl ether have been previously used for lipid extraction of oil-in-water emulsions. The extraction procedure was repeated three times and the organic extracts were pooled and washed with distilled water. After filtration through anhydrous sodium sulfate, the solvent was evaporated in a rotatory evaporator under reduced pressure at room temperature and the extracted lipids were dried using a stream of nitrogen.
Initial and digested samples were analyzed by gas-liquid chromatography using an HP 6890 Series chromatograph (Hewlett-Packard, Avondale, PA, USA) equipped with a split-splitless injector operating in the split mode with a 40:1 split ratio at 250 °C, a J&W DB-Wax fused-silica capillary column, 60 m × 0.25 mm I.D., film thickness 0.25 μm (J&W Scientific, Folsom, CA, USA) and a flame ionization detector that was used at 250 °C. The analyses were run using hydrogen as carrier gas at 1 mL min^−1 and under isothermal conditions using 230 °C for 25 min. Injections were carried out automatically using a 6890 Series autosampler (Agilent Technologies, Karlsruhe, Germany). A volume of 1 μL of sample dissolved in diethyl ether (~5 mg mL^−1) was analyzed.

[2] = rat, in vivo; cited from earlier work
[3] = equimolar mixture, 16 μmol mL^−1 each, sample volume 1 mL, SGF pH 1.2, 3 h 37 °C
[4] = equimolar mixture, 16 μmol mL^−1 each, sample volume 2 mL, SGF pH 1.2, 3 h 37 °C
[5] = equimolar mixture, 16 μmol mL^−1 each, sample volume 3 mL, SGF pH 1.2, 3 h 37 °C
[6] = equimolar mixture, 16 μmol mL^−1 each, sample volume 4 mL, SGF pH 1.2, 3 h 37 °C
[7] = tested alone, initial 15.79 μmol mL^−1, sample volume 1 mL, SGF pH 1.2
[8] = tested alone, initial 15.79 μmol mL^−1, sample volume 2 mL, SGF pH 1.2
[9] = tested alone, initial 15.79 μmol mL^−1, sample volume 3 mL, SGF pH 1.2
[10] = tested alone, initial 15.79 μmol mL^−1, sample volume 4 mL, SGF pH 1.2
[11] = tested alone, initial 46.03 μmol mL^−1, sample volume 1 mL, SGF pH 1.2
[12] = tested alone, initial 46.03 μmol mL^−1, sample volume 2 mL, SGF pH 1.2
[13] = tested alone, initial 46.03 μmol mL^−1, sample volume 3 mL, SGF pH 1.2
[14] = tested alone, initial 46.03 μmol mL^−1, sample volume 4 mL, SGF pH 1.2

CCCCCCCCC1OC1CCCCCCCC(=O)OC (stereo not drawn) [methyl 9,10-epoxystearate, Methyl trans-9,10-epoxystearate]
Losses after in vitro gastric digestion, range over all samples ([1]; all concentrations and sample volumes tested, SGF pH 1.2): 17.8–58.8%
Final Concentration [1, 3]: 7.52 ± 0.73 a μmol mL^−1
Loss % after Digestion [1, 3]: 52.7 ± 4.6 B %
Final Concentration [1, 4]: 7.79 ± 0.65 ab μmol mL^−1
Loss % after Digestion [1, 4]: 51.3 ± 4.0 AB %
Final Concentration [1, 5]: 8.89 ± 0.43 b μmol mL^−1
Loss % after Digestion [1, 5]: 44.4 ± 2.7 A %
Final Concentration [1, 6]: 9.55 ± 0.40 b μmol mL^−1
Loss % after Digestion [1, 6]: 40.3 ± 2.5 A %
Final [9,10-Epoxystearate] [1, 7]: 6.50 ± 1.07 a μmol mL^−1
Loss % after Digestion [1, 7]: 58.8 ± 6.8 D %
Final [9,10-Epoxystearate] [1, 8]: 7.20 ± 0.80 ab μmol mL^−1
Loss % after Digestion [1, 8]: 54.4 ± 5.0 CD %
Final [9,10-Epoxystearate] [1, 9]: 8.00 ± 0.48 ab μmol mL^−1
Loss % after Digestion [1, 9]: 49.3 ± 3.0 CD %
Final [9,10-Epoxystearate] [1, 10]: 8.97 ± 0.60 b μmol mL^−1
Loss % after Digestion [1, 10]: 43.2 ± 3.8 BC %
Final [9,10-Epoxystearate] [1, 11]: 26.16 ± 2.24 a μmol mL^−1
Loss % after Digestion [1, 11]: 43.2% and 43.2 ± 4.9 BC %
Final [9,10-Epoxystearate] [1, 12]: 30.53 ± 1.48 a μmol mL^−1
Loss % after Digestion [1, 12]: 33.7 ± 3.2 B %
Final [9,10-Epoxystearate] [1, 13]: 35.06 ± 0.81 b μmol mL^−1
Loss % after Digestion [1, 13]: 23.8 ± 1.8 A %
Final [9,10-Epoxystearate] [1, 14]: 37.82 ± 1.96 b μmol mL^−1
Loss % after Digestion [1, 14]: 17.8% and 17.8 ± 4.3 A %

CCCCCCC(O)CCCCCCCCCCC(=O)OC (centres unmarked) [methyl 12-hydroxystearate]
Final Concentration [1, 3]: 15.92 ± 0.40 c μmol mL^−1
Final Concentration [1, 4]: 15.45 ± 1.03 c μmol mL^−1
Final Concentration [1, 5]: 16.13 ± 0.39 c μmol mL^−1
Final Concentration [1, 6]: 15.51 ± 1.13 c μmol mL^−1

CCCCCCC(=O)CCCCCCCCCCC(=O)OC [methyl 12-oxostearate]
Change after simulated gastric digestion (in words) ([1]; equimolar mixture, 16 μmol mL^−1 each, 1-4 mL, SGF pH 1.2): remained unaltered; also recorded: remained at the starting levels
Final Concentration [1, 3]: 16.11 ± 0.21 c μmol mL^−1
Final Concentration [1, 4]: 15.80 ± 0.37 c μmol mL^−1
Final Concentration [1, 5]: 15.88 ± 0.73 c μmol mL^−1
Final Concentration [1, 6]: 16.15 ± 0.58 c μmol mL^−1

linoleic acid hydroperoxides
Share decomposed to a variety of compounds in the stomach [2]: about 70%
